Converted amounts (≈) assume the structure as drawn.
How the values were obtained:
[1] = due to instability in metabolism in the body; cited from earlier work
[2] = at a high dose; Clin. Pharmacol. Ther. 2011, 90, 256; cited from earlier work
[3] = tested on: methemoglobin in blood samples of three healthy volunteers; experiment: Toxicity on methemoglobin in vitro (whole blood with S9 and NADPH, absorbance at 630 nm); assay type: cell-based, human; conditions: 500 μM compound; whole blood + S9 + NADPH; 5 hours at 37° C.
Procedure, shortened: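 Fresh EDTA whole blood from three healthy volunteers incubated 5 h at 37 °C with human liver S9 (2 mg/mL), NADPH-generating system and compound at 500 μM final. Lysed in 1% Triton X-100; MetHb % from 630 nm absorbance relative to ferricyanide-oxidized blood.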

[4] = tested on: Enterococcus faecium (EFM); experiment: MIC, two-fold agar dilution (CLSI), clinical isolates; assay type: cell-based
Procedure, shortened: (§1)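 Susceptibility was tested using CLSI two-fold agar dilution against the strains examined.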

[5] = tested on: Streptococcus pneoumoniae (SPN); experiment: as above; assay type: cell-based
Procedure, shortened: as §1

[6] = tested on: methicillin-resistant Staphylococcus epidermidis (MRSE); experiment: as above; assay type: cell-based
Procedure, shortened: as §1

[7] = tested on: Escherichia coli (including ESBLs, non-ESBLs); experiment: as above; assay type: cell-based
Procedure, shortened: as §1

[8] = tested on: methicillin-sensitive Staphylococcus epidermidis (MSSE); experiment: as above; assay type: cell-based
Procedure, shortened: as §1

[9] = tested on: methicillin-sensitive Staphylococcus aureus (MSSA); experiment: as above; assay type: cell-based
Procedure, shortened: as §1

[10] = tested on: Moraxella catarrhalis (BCA); experiment: as above; assay type: cell-based
Procedure, shortened: as §1

[11] = tested on: methicillin-resistant Staphylococcus aureus (MRSA); experiment: as above; assay type: cell-based
Procedure, shortened: as §1

[12] = tested on: Enterococcus faecalis (EFA); experiment: as above; assay type: cell-based
Procedure, shortened: as §1

For `CCCCC[C@H](CC(=O)NO)C(=O)N[C@H](C(=O)N1CCC[C@H]1CO)C(C)C` [Actinonin], the activity in vivo [1] is given as “no activity in vivo”.
In the case of `CCCC[C@H](CN(O)C=O)C(=O)N1CCC[C@H]1C(=O)Nc1ccc(F)c[n+]1[O-]` [LBM415, reference compound], the “adverse effect in Phase I clinical trial” value [2] is given as “could cause methemoglobinemia at a high dose”, the “MetHb % (n = 3)” value [3] is given as 3.05 ± 0.01% and the Anti-bacterial activity (MIC) ([4]; strain EFM 15-1) is given as 2 µg/mL. For the same compound, the Anti-bacterial activity (MIC) ([4]; strain EFM 15-2) was 2 µg/mL, the Anti-bacterial activity (MIC) ([4]; strain EFM 15-3) was 4 µg/mL and the Anti-bacterial activity (MIC) ([4]; strain EFM 15-4) was 8 µg/mL. For the same compound, the Anti-bacterial activity (MIC) ([4]; strain EFM 15-5) was 4 µg/mL, the Anti-bacterial activity (MIC) ([4]; strain EFM 15-6) was 4 µg/mL and the Anti-bacterial activity (MIC) ([5]; strain SPN 16-2) was 2 µg/mL. For the same compound, the Anti-bacterial activity (MIC) ([5]; strain SPN 16-4) was 2 µg/mL, the Anti-bacterial activity (MIC) ([6]; strain MRSE 15-1) was 0.125 µg/mL and the Anti-bacterial activity (MIC) ([6]; strain MRSE 15-2) was 0.125 µg/mL. For the same compound, the Anti-bacterial activity (MIC) ([6]; strain MRSE 15-3) was 0.06 µg/mL, the Anti-bacterial activity (MIC) ([6]; strain MRSE 15-7) was 0.125 µg/mL and the Anti-bacterial activity (MIC) ([7]; strain ECO+ 15-1) was 64 µg/mL. It also gave an Anti-bacterial activity (MIC) ([7]; strain ECO+ 15-2) of 64 µg/mL, an Anti-bacterial activity (MIC) ([7]; strain ECO+ 15-3) of 64 µg/mL and an Anti-bacterial activity (MIC) ([7]; strain ECO+ 15-4) of 64 µg/mL. It also gave an Anti-bacterial activity (MIC) ([7]; strain ECO− 15-1) of 64 µg/mL, an Anti-bacterial activity (MIC) ([7]; strain ECO− 15-2) of 64 µg/mL and an Anti-bacterial activity (MIC) ([7]; strain ECO− 15-3) of 64 µg/mL. The Anti-bacterial activity (MIC) ([7]; strain ECO− 15-4) was 64 µg/mL, the Anti-bacterial activity (MIC) ([8]; strain MSSE 15-3) was 0.06 µg/mL and the Anti-bacterial activity (MIC) ([8]; strain MSSE 15-4) was 0.5 µg/mL. It also gave an Anti-bacterial activity (MIC) ([8]; strain MSSE 15-5) of 0.06 µg/mL, an Anti-bacterial activity (MIC) ([8]; strain MSSE 15-6) of 128 µg/mL and an Anti-bacterial activity (MIC) ([9]; strain MSSA 15-3) of 0.5 µg/mL. For the same compound, the Anti-bacterial activity (MIC) ([9]; strain MSSA 15-4) was 0.5 µg/mL, the Anti-bacterial activity (MIC) ([9]; strain MSSA 15-5) was 0.5 µg/mL and the Anti-bacterial activity (MIC) ([9]; strain MSSA 15-6) was 0.5 µg/mL. It also gave an MIC ([10]; Moraxella catarrhalis, 7 clinical isolates, range over strains, read-out: Moraxella catarrhalis (n = 7) MIC) of 0.5 to 2 µg/mL (≈ 1.26 to 5.05 µM), an Anti-bacterial activity (MIC) ([10]; strain BCA 14-1) of 2 µg/mL and an Anti-bacterial activity (MIC) ([10]; strain BCA 14-4) of 2 µg/mL. The Anti-bacterial activity (MIC) ([10]; strain BCA 14-5) was 1 µg/mL, the Anti-bacterial activity (MIC) ([10]; strain BCA 14-6) was 2 µg/mL and the Anti-bacterial activity (MIC) ([10]; strain BCA 14-7) was 0.5 µg/mL. For the same compound, the Anti-bacterial activity (MIC) ([10]; strain BCA 14-8) was 0.5 µg/mL, the Anti-bacterial activity (MIC) ([10]; strain BCA 14-10) was 0.5 µg/mL and the MIC ([11]; Staphylococcus aureus, MRSA, range over strains, read-out: minimum inhibitory concentration MIC against methicillin-resistant Staphylococcus (MRSA)) was 0.5 to 1 µg/mL (≈ 1.26 to 2.52 µM). It also gave an Anti-bacterial activity (MIC) ([11]; strain MRSA 15-1) of 1 µg/mL, an Anti-bacterial activity (MIC) ([11]; strain MRSA 15-2) of 1 µg/mL and an Anti-bacterial activity (MIC) ([11]; strain MRSA 15-3) of 1 µg/mL. For the same compound, the Anti-bacterial activity (MIC) ([11]; strain MRSA 15-4) was 0.5 µg/mL, the Anti-bacterial activity (MIC) ([12]; strain EFA 15-1) was 2 µg/mL and the Anti-bacterial activity (MIC) ([12]; strain EFA 15-2) was 2 µg/mL. It also gave an Anti-bacterial activity (MIC) ([12]; strain EFA 15-3) of 2 µg/mL, an Anti-bacterial activity (MIC) ([12]; strain EFA 15-4) of 2 µg/mL and an Anti-bacterial activity (MIC) ([12]; strain EFA 15-5) of 2 µg/mL. The Anti-bacterial activity (MIC) ([12]; strain EFA 15-6) was 128 µg/mL and the Anti-bacterial activity (MIC) ([12]; strain EFA 15-9) was 128 µg/mL.
